Data: paper PMC4626104, “Inhibition on Proteasome β1 Subunit Might Contribute to the Anti-Cancer Effects of Fangchinoline in Human Prostate Cancer Cells” (PLoS ONE, 2015)
Like-named read-outs stand apart in the source and are kept apart here.

How the values were obtained:
LnCap cells = assay: MTT assay of cell proliferation, LnCap cells; assay type: cell-based; conditions: Homo sapiens, read-out: IC50 inhibiting cell proliferation
Description: The inhibitive effects of fangchinoline on proliferation of PC-3 cells or LnCap cells was observed by checking cell viability of cells using MTT assay as described before. Briefly, cells were seeded in 96-well plates at a density of 5×10^4 cells/mL for PC-3 cell and 4×10^4 cells/mL for LnCap cells. After overnight culture, the media were changed into fresh media containing various concentrations of fangchinoline or 0.1% DMSO (solvent control) for 24, 48 h or 72 h. Cell viability was evaluated by measuring the mitochondrial-dependent conversion of the yellow tetrazolium salt MTT to purple formazan crystals by metabolic active cells. The optical density (proportional to the number of live cells) was assessed with a Microplate Reader Bio-Rad 550 at 570 nm. IC50 value (half-maximal inhibitory concentration) was calculated by the Logit method.

[1] = system: T1, cellular proteasome of PC-3 cells; assay: Cellular proteasome activities of PC-3 cells; assay type: cell-based, human
T1 construct: endogenous in cells; host or cells: PC-3 cells, whole cell extract
Description: Cells were treated with either solvent control (0.1% DMSO), fangchinoline at different concentrations, or 1 μM carfilzomib (positive control) for 24 h at 37 °C. The enzymatic activities of cellular proteasome in cell lysate were measured as reported in our previous paper. Briefly, cells were harvested, washed with PBS and then lysed in proteasome activity assay buffer for 30 min at 4°C. The homogenate was then centrifuged at 12000 × g for 30 min at 4°C. The supernatant was collected as whole cell extract and the protein content in the supernatant was measured with the Bradford reagent. Catalytic activities of cellular proteasome were assayed by adding whole cell extract (containing 30 μg protein) to 100 μL of proteasome activity assay buffer containing 50 μM fluorogenic peptide substrates such as Z-LLE-AMC for detecting C-L activity, Z-ARR-AMC for detecting T-L activity or Suc-LLVY-AMC for detecting CT-L activity, respectively. The release of fluorogenic AMC from the peptide substrates was then measured as described above.

[2] = system: caspase-3, PARP, LC-3B in PC-3 cells; assay: Western blotting of apoptosis and autophagy markers in PSMB6 knockdown PC-3 cells; assay type: cell-based, human; conditions: 40 μM, 24 h
Description: Western blotting assay was conducted as described before. Briefly, an aliquot of protein (100 μg) sample was loaded onto a 12% SDS gel, separated electrophoretically, and transferred to a Nitrocellulose membrane (Bio-Rad). After the membrane was incubated with 10 mM TBS with […] and 5% dehydrated skim milk to block nonspecific protein binding, the membrane was incubated with primary antibodies overnight at 4°C. The primary antibodies (all from Cell Signaling Technology) used were rabbit polyclonal antibody against human IκB-α (#4812, 1:400), Bax (#2772, 1:400), proteasome β1 subunit (PSMB6) (#13267, 1:500), β-actin (#4967, 1:400) and mouse monoclonal antibody against human p27 Kip1 (#3688, 1:400) or ubiquitin (#3936, 1:1000). After TBS washes, blots were then incubated with secondary antibody for 2 h at room temperature at a 1:1000 dilution and then visualized using chemiluminescence (Pierce Biotechnology, Rockford, IL, USA). The secondary antibodies used were HRP-linked goat anti-rabbit IgG (#7074) and HRP-linked horse anti-mouse IgG (#7076), both from Cell Signaling Technology.
Validated siRNAs for PSMB6 (Sigma-Aldrich) were transfected into PC-3 cells by using Lipofectamine RNAiMAX (Invitrogen) according to the manufacturer’s protocol. Scrambled negative control siRNAs (Sigma-Aldrich) were used as negative control. […]

SMILES: COc1ccc2cc1Oc1ccc(cc1)C[C@H]1c3cc(c(OC)cc3CCN1C)Oc1c(O)c(OC)cc3c1[C@H](C2)N(C)CC3 [fangchinoline]
- IC50 (LnCap cells; 24 h): 36.2 ± 6.33 µM
- IC50 (LnCap cells; 48 h): 11.6 ± 0.22 µM
- IC50 (LnCap cells; 72 h): 12.7 ± 0.59 µM
- Inhibition of enzyme activity of cellular proteasome β1 subunit ([1]; 10 μM, 24 h treatment): about 50%
- Effect on chymotrypsin-like (CT-L) activity of cellular proteasome ([1]; PC-3 cells, 24 h): not significantly affected
- Effect on trypsin-like (T-L) activity of cellular proteasome ([1]; PC-3 cells, 24 h): not significantly affected
- Inhibition on C-L activity of cellular proteasome ([1]; PC-3 cells, 24 h, doses of 1 and 10 μM): significant
- Effect of knockdown of proteasome β1 subunit on markers of apoptosis (caspase-3, PARP) and autophagy (LC-3B) [2]: ameliorated fangchinoline-induced apoptosis and autophagy
